# Reference: the supplement of paper PMC10307832
# What was measured:
# Test in all cases: relative viability (nuclei count vs DMSO), 5 days (fraction); higher = more cells survive
# 201T = tested on: 201T
# Procedure, shortened: (§1)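 Dosing by pin tool came one day after lung cancer cell lines were seeded in 1536-well plates, using either one drug or a fixed anchor-drug dose plus five library-drug doses (not always all listed) in √10 steps. After 5 days, nuclei were counted on 4× images. Relative viability is treated-well nuclei count divided by vehicle-well nuclei count, and values are medians of duplicate plates.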
# COR-L 105 = tested on: COR-L 105
# Procedure, shortened: as §1
# EPLC-272H = tested on: EPLC-272H
# Procedure, shortened: as §1
# H3255 = tested on: H3255
# Procedure, shortened: as §1
# HCC-78 = tested on: HCC-78
# Procedure, shortened: as §1
# HCC-827 = tested on: HCC-827
# Procedure, shortened: as §1
# LC-2-ad = tested on: LC-2-ad
# Procedure, shortened: as §1
# LCLC-97TM1 = tested on: LCLC-97TM1
# Procedure, shortened: as §1
# NCI-H1666 = tested on: NCI-H1666
# Procedure, shortened: as §1
# NCI-H1915 = tested on: NCI-H1915
# Procedure, shortened: as §1
# NCI-H2087 = tested on: NCI-H2087
# Procedure, shortened: as §1
# NCI-H2126 = tested on: NCI-H2126
# Procedure, shortened: as §1
# NCI-H2347 = tested on: NCI-H2347
# Procedure, shortened: as §1
# NCI-H23 = tested on: NCI-H23
# Procedure, shortened: as §1
# NCI-H2405 = tested on: NCI-H2405
# Procedure, shortened: as §1
# NCI-H520 = tested on: NCI-H520
# Procedure, shortened: as §1
# NCI-H647 = tested on: NCI-H647
# Procedure, shortened: as §1
# NCI-H650 = tested on: NCI-H650
# Procedure, shortened: as §1
# NCI-H661 = tested on: NCI-H661
# Procedure, shortened: as §1
# PC-14 = tested on: PC-14
# Procedure, shortened: as §1
# RERF-LC-KJ = tested on: RERF-LC-KJ
# Procedure, shortened: as §1
structure (smiles),measurement,setting,value
CC(=O)O[C@@]12CO[C@@H]1C[C@H](O)[C@@]1(C)C(=O)[C@H](O)C3=C(C)[C@@H](OC(=O)[C@H](O)[C@@H](NC(=O)OC(C)(C)C)c4ccccc4)C[C@@](O)([C@@H](OC(=O)c4ccccc4)[C@H]21)C3(C)C [Docetaxel] + Cc1nc(NC(=O)N2CCC[C@H]2C(N)=O)sc1-c1ccnc(C(C)(C)C(F)(F)F)c1 [Alpelisib] (partner 2 µM),relative viability,201T; first compound 0.0002 µM,1.01
same,relative viability,201T; first compound 0.000632 µM,1.06
same,relative viability,201T; first compound 0.002 µM,0.878
same,relative viability,201T; first compound 0.006325 µM,0.555
same,relative viability,201T; first compound 0.02 µM,0.366
same,relative viability,COR-L 105; first compound 0.0002 µM,0.828
same,relative viability,COR-L 105; first compound 0.000632 µM,0.952
same,relative viability,COR-L 105; first compound 0.002 µM,0.475
same,relative viability,COR-L 105; first compound 0.006325 µM,0.522
same,relative viability,COR-L 105; first compound 0.02 µM,0.306
same,relative viability,EPLC-272H; first compound 0.0002 µM,0.928
same,relative viability,EPLC-272H; first compound 0.000632 µM,0.741
same,relative viability,EPLC-272H; first compound 0.002 µM,0.43
same,relative viability,EPLC-272H; first compound 0.006325 µM,0.147
same,relative viability,EPLC-272H; first compound 0.02 µM,0.106
same,relative viability,H3255; first compound 0.0002 µM,0.572
same,relative viability,H3255; first compound 0.000632 µM,0.722
same,relative viability,H3255; first compound 0.002 µM,0.348
same,relative viability,H3255; first compound 0.006325 µM,0.251
same,relative viability,HCC-78; first compound 0.0002 µM,0.338
same,relative viability,HCC-78; first compound 0.000632 µM,0.279
same,relative viability,HCC-78; first compound 0.002 µM,0.255
same,relative viability,HCC-78; first compound 0.006325 µM,0.24
same,relative viability,HCC-78; first compound 0.02 µM,0.175
same,relative viability,HCC-827; first compound 0.0002 µM,0.981
same,relative viability,HCC-827; first compound 0.000632 µM,0.992
same,relative viability,HCC-827; first compound 0.002 µM,0.706
same,relative viability,HCC-827; first compound 0.006325 µM,0.288
same,relative viability,HCC-827; first compound 0.02 µM,0.282
same,relative viability,LC-2-ad; first compound 0.0002 µM,0.538
same,relative viability,LC-2-ad; first compound 0.000632 µM,0.174
same,relative viability,LC-2-ad; first compound 0.002 µM,0.166
same,relative viability,LC-2-ad; first compound 0.006325 µM,0.11
same,relative viability,LC-2-ad; first compound 0.02 µM,0.0967
same,relative viability,LCLC-97TM1; first compound 0.000632 µM,0.222
same,relative viability,LCLC-97TM1; first compound 0.002 µM,0.121
same,relative viability,LCLC-97TM1; first compound 0.006325 µM,0.154
same,relative viability,LCLC-97TM1; first compound 0.02 µM,0.0979
same,relative viability,NCI-H1666; first compound 0.0002 µM,0.803
same,relative viability,NCI-H1666; first compound 0.000632 µM,0.406
same,relative viability,NCI-H1666; first compound 0.002 µM,0.352
same,relative viability,NCI-H1666; first compound 0.006325 µM,0.276
same,relative viability,NCI-H1666; first compound 0.02 µM,0.168
same,relative viability,NCI-H1915; first compound 0.0002 µM,1.02
same,relative viability,NCI-H1915; first compound 0.000632 µM,0.971
same,relative viability,NCI-H1915; first compound 0.002 µM,0.52
same,relative viability,NCI-H1915; first compound 0.006325 µM,0.183
same,relative viability,NCI-H1915; first compound 0.02 µM,0.135
same,relative viability,NCI-H2087; first compound 0.0002 µM,0.916
same,relative viability,NCI-H2087; first compound 0.000632 µM,0.753
same,relative viability,NCI-H2087; first compound 0.002 µM,0.253
same,relative viability,NCI-H2087; first compound 0.006325 µM,0.193
same,relative viability,NCI-H2087; first compound 0.02 µM,0.15
same,relative viability,NCI-H2126; first compound 0.0002 µM,0.781
same,relative viability,NCI-H2126; first compound 0.000632 µM,0.753
same,relative viability,NCI-H2126; first compound 0.002 µM,0.541
same,relative viability,NCI-H2126; first compound 0.006325 µM,0.321
same,relative viability,NCI-H2126; first compound 0.02 µM,0.231
same,relative viability,NCI-H2347; first compound 0.0002 µM,1.01
same,relative viability,NCI-H2347; first compound 0.000632 µM,1.1
same,relative viability,NCI-H2347; first compound 0.002 µM,0.666
same,relative viability,NCI-H2347; first compound 0.006325 µM,0.525
same,relative viability,NCI-H2347; first compound 0.02 µM,0.438
same,relative viability,NCI-H23; first compound 0.0002 µM,0.612
same,relative viability,NCI-H23; first compound 0.000632 µM,0.512
same,relative viability,NCI-H23; first compound 0.002 µM,0.406
same,relative viability,NCI-H23; first compound 0.006325 µM,0.209
same,relative viability,NCI-H23; first compound 0.02 µM,0.0958
same,relative viability,NCI-H2405; first compound 0.0002 µM,0.894
same,relative viability,NCI-H2405; first compound 0.000632 µM,0.677
same,relative viability,NCI-H2405; first compound 0.002 µM,0.467
same,relative viability,NCI-H2405; first compound 0.006325 µM,0.448
same,relative viability,NCI-H2405; first compound 0.02 µM,0.288
same,relative viability,NCI-H520; first compound 0.0002 µM,0.786
same,relative viability,NCI-H520; first compound 0.000632 µM,0.95
same,relative viability,NCI-H520; first compound 0.002 µM,0.287
same,relative viability,NCI-H520; first compound 0.006325 µM,0.152
same,relative viability,NCI-H520; first compound 0.02 µM,0.13
same,relative viability,NCI-H647; first compound 0.0002 µM,0.903
same,relative viability,NCI-H647; first compound 0.000632 µM,0.347
same,relative viability,NCI-H647; first compound 0.002 µM,0.189
same,relative viability,NCI-H647; first compound 0.006325 µM,0.0725
same,relative viability,NCI-H647; first compound 0.02 µM,0.0507
same,relative viability,NCI-H650; first compound 0.0002 µM,1.02
same,relative viability,NCI-H650; first compound 0.000632 µM,0.518
same,relative viability,NCI-H650; first compound 0.002 µM,0.315
same,relative viability,NCI-H650; first compound 0.006325 µM,0.304
same,relative viability,NCI-H650; first compound 0.02 µM,0.212
same,relative viability,NCI-H661; first compound 0.0002 µM,0.468
same,relative viability,NCI-H661; first compound 0.000632 µM,0.582
same,relative viability,NCI-H661; first compound 0.002 µM,0.411
same,relative viability,NCI-H661; first compound 0.006325 µM,0.344
same,relative viability,NCI-H661; first compound 0.02 µM,0.176
same,relative viability,PC-14; first compound 0.0002 µM,0.895
same,relative viability,PC-14; first compound 0.000632 µM,0.998
same,relative viability,PC-14; first compound 0.002 µM,0.354
same,relative viability,PC-14; first compound 0.006325 µM,0.11
same,relative viability,PC-14; first compound 0.02 µM,0.0576
same,relative viability,RERF-LC-KJ; first compound 0.0002 µM,0.801
same,relative viability,RERF-LC-KJ; first compound 0.000632 µM,0.712
same,relative viability,RERF-LC-KJ; first compound 0.002 µM,0.38
same,relative viability,RERF-LC-KJ; first compound 0.006325 µM,0.235
same,relative viability,RERF-LC-KJ; first compound 0.02 µM,0.172
